The test system of series [1] is eight pancreatic cancer cells. Kind of series: BrdU-ELISA proliferation assay, IIIg alone and with oxaliplatin. Type of series: cell-based, human. The procedure: The effect of IIIg alone and in combination with oxaliplatin on the proliferation of eight pancreatic cancer cells is determined using a BrdU-ELISA assay.
Assessment of synergy is performed according to the method described by Chou and Talalay.
(In general: ELISA stands for enzyme-linked immunosorbent assay.)

For series [2], the system named is human MX-1 breast carcinoma. As to the kind of experiment: Human MX-1 breast carcinoma xenograft model in nude mice. Type of series: in vivo. The procedure:
Female athymic nude mice (nu/nu, Harlan) are 10 weeks old, and have a body weight (BW) range of 18.1-27.0 g on D1 of the study. The animals are fed ad libitu water (reverse osmosis, 1 ppm Cl) and NIH 31 Modified and Irradiated Lab Diet® consisting of 18.0% crude protein, 5.0% crude fat, and 5.0% crude fiber. The mice are housed on irradiated ALPHA-dri® bed-o-cobs® Laboratory Animal Bedding in static microisolators on a 12-hour light cycle at 21-22° C. (70-72° F.) and 40-60% humidity. PRC specifically complies with the recommendations of the Guide for Care and Use of Laboratory Animals with respect to restraint, husbandry, surgical procedures, feed and fluid regulation, and veterinary care. […]
The human MX-1 breast carcinoma utilized in the present study is maintained in nude mice by serial engraftment. […] Tumors are monitored twice weekly and then daily as their volumes approached 80-120 mm^3. […] Tumor size, in mm3, is calculated from: […]
(§1) Tumors are calipered twice weekly for the duration of the study. […] The time to endpoint (TTE) for each mouse is calculated according to the following equation: […]
(§2) where TTE is expressed in days, endpoint volume is in mm3, b is the intercept, and m is the slope of the line obtained by linear regression of a log-transformed tumor growth data set. […] The calculated TTE is usually less than the day on which an animal is euthanized for tumor size. […]

Series [3] deals with human SW620 colon adenocarcinoma. As to the kind of experiment: Human SW620 colon adenocarcinoma xenograft model in nude mice. Type of series: in vivo. How it is done:
The animals are fed ad libitu water (reverse osmosis, 1 ppm Cl) and NIH 31 Modified and Irradiated Lab Diet® consisting of 18.0% crude protein, 5.0% crude fat, and 5.0% crude fiber. The mice are housed on irradiated ALPHA-dri® bed-o-cobs® Laboratory Animal Bedding in static microisolators on a 12-hour light cycle at 21-22° C. (70-72° F.) and 40-60% humidity. PRC specifically complies with the recommendations of the Guide for Care and Use of Laboratory Animals with respect to restraint, husbandry, surgical procedures, feed and fluid regulation, and veterinary care. […]
The human SW620 colon adenocarcinoma utilized in the present study is maintained in nude mice by serial engraftment. […] Tumors are monitored twice weekly and then daily as their volumes approached 80-120 mm^3. […] Tumor size, in mm3, is calculated from: […]
as §1, §2

Setting [4] is: once-daily or twice-weekly administration.

As usually defined, the IC50 is the concentration at which inhibition is half-maximal. On to `O=c1ccc2c(I)c([N+](=O)[O-])ccc2o1` [IIIg, 5-iodo-6-nitro-benzopyrone], for which, in series [1] (Homo sapiens, Pancreatic cancer cell, IIIg alone, range over eight PC cell lines, read-out: IC50 (growth of eight PC cell lines)), the half-inhibitory concentration (IC50) lay within 5 to 10 µM. The “Potentiation of oxaliplatin cytotoxicity” value in series [1] (different pancreatic cancer cell models) is reported as “potentiates oxaliplatin cytotoxicity”. In addition, the “Survival of tumor-bearing animals” value in series [2] (biweekly intraperitoneal injection, 100 mg/kg) is “prolongs survival”; in series [3] (biweekly intraperitoneal injection, 50 mg/kg), “prolongs survival”. Further, the Tumor growth result in series [2] (setting [4]) and in series [3] (setting [4]) was “inhibits tumor growth” throughout.

(Values after US20090149417A1, “Methods and compositions for the treatment of cancer using benzopyrone-type PARP inhibitors” (priority 2007, published 2009).)
